# From US12102633B2, “Spirolactone compounds” (Quixgen, Inc., priority 2017, dated 2024)
# Tests used:
# human ACC1 = molecular target: T1, human ACC1 (Homo sapiens, UniProt Q13085); test: Human ACC enzymatic activity assay (ACC1); type: biochemical; settings: purified human ACC1; read-out: EA-CoA hACC 1 IC50
# T1 construct: purchased BPS Bioscience
# Procedure, shortened: (§1)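 Purified human ACC1 (0.4 μg/mL) or ACC2 (0.48 μg/mL) was preincubated with compound 10 min at 37° C in HEPES pH 7.5 with 4.0 mM ATP and 15 mM ^13C-NaHCO3. The reaction was started with 5 μM acetyl-CoA, run 1-2 h at 37° C and stopped with TCA. Labelled malonyl-CoA was quantified by LC-MS/MS.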
# [1] = Plasma protein binding (human); type: in vitro ADME; settings: % free, read-out: PPB (h/m) % free, human
# Protocol: (§2) The data in Table 5 were obtained by following the methods disclosed in this application and/or those standard techniques known in the art. ACC enzyme activities were measured according to Biological Examples 1 and 2; Malonyl-CoA in sebocytes were measured according to Biological Example 4; Effect on lipogenesis of 3T3-L1 adipocytes were measured according to Biological Example 7; Effect on lipogenesis of sebocytes were measured according to Biological Example 5; Effect on proliferation of sebocytes were measured according to Biological Example 6; Mouse PK were measured according to Biological Example 10; and Plasma protein binding (human or mouse) were measured by standard technique.
# [2] = Standard PK in CD-1 mice (m-PK); type: in vivo, mouse; settings: for half-life / clearance: male; for half-life: CD-1, mouse, whole blood, read-out: m-PK T1/2 (converted); for clearance: CD-1, whole blood, 1 mg/kg IV, read-out: m-PK Cl; for clearance / m-PK F: mouse; for m-PK F: 5 mg/kg PO vs 1 mg/kg IV
# Protocol: Standard PK. Male catheterized CD-1 mice were treated with Compound 6 prepared in vehicle (5% DMSO+10% Solutol+85% PBS, PH=7.4) at doses of 1 mg/kg for IV (5 mL/kg) or 5 mg/kg for PO (10 mL/kg). Blood samples (20 VL) were collected at 0.083, 0.25, 0.5, 1, 2, 4, 8, and 24 hrs post dose and mixed with 60 VL 0.1 M sodium citrate. Upon extraction by using acetonitrile, blood concentrations of Compound 6 were quantitated by LC-MS/MS. PK parameters were calculated by using WinNonlin® 6.4.
# human ACC2 = molecular target: T2, human ACC2 (Homo sapiens, UniProt O00763); test: Human ACC enzymatic activity assay (ACC2); type: biochemical; settings: purified human ACC2; read-out: EA-CoA hACC 2 IC50
# T2 construct: purchased BPS Bioscience
# T2 sequence (O00763 whole entry): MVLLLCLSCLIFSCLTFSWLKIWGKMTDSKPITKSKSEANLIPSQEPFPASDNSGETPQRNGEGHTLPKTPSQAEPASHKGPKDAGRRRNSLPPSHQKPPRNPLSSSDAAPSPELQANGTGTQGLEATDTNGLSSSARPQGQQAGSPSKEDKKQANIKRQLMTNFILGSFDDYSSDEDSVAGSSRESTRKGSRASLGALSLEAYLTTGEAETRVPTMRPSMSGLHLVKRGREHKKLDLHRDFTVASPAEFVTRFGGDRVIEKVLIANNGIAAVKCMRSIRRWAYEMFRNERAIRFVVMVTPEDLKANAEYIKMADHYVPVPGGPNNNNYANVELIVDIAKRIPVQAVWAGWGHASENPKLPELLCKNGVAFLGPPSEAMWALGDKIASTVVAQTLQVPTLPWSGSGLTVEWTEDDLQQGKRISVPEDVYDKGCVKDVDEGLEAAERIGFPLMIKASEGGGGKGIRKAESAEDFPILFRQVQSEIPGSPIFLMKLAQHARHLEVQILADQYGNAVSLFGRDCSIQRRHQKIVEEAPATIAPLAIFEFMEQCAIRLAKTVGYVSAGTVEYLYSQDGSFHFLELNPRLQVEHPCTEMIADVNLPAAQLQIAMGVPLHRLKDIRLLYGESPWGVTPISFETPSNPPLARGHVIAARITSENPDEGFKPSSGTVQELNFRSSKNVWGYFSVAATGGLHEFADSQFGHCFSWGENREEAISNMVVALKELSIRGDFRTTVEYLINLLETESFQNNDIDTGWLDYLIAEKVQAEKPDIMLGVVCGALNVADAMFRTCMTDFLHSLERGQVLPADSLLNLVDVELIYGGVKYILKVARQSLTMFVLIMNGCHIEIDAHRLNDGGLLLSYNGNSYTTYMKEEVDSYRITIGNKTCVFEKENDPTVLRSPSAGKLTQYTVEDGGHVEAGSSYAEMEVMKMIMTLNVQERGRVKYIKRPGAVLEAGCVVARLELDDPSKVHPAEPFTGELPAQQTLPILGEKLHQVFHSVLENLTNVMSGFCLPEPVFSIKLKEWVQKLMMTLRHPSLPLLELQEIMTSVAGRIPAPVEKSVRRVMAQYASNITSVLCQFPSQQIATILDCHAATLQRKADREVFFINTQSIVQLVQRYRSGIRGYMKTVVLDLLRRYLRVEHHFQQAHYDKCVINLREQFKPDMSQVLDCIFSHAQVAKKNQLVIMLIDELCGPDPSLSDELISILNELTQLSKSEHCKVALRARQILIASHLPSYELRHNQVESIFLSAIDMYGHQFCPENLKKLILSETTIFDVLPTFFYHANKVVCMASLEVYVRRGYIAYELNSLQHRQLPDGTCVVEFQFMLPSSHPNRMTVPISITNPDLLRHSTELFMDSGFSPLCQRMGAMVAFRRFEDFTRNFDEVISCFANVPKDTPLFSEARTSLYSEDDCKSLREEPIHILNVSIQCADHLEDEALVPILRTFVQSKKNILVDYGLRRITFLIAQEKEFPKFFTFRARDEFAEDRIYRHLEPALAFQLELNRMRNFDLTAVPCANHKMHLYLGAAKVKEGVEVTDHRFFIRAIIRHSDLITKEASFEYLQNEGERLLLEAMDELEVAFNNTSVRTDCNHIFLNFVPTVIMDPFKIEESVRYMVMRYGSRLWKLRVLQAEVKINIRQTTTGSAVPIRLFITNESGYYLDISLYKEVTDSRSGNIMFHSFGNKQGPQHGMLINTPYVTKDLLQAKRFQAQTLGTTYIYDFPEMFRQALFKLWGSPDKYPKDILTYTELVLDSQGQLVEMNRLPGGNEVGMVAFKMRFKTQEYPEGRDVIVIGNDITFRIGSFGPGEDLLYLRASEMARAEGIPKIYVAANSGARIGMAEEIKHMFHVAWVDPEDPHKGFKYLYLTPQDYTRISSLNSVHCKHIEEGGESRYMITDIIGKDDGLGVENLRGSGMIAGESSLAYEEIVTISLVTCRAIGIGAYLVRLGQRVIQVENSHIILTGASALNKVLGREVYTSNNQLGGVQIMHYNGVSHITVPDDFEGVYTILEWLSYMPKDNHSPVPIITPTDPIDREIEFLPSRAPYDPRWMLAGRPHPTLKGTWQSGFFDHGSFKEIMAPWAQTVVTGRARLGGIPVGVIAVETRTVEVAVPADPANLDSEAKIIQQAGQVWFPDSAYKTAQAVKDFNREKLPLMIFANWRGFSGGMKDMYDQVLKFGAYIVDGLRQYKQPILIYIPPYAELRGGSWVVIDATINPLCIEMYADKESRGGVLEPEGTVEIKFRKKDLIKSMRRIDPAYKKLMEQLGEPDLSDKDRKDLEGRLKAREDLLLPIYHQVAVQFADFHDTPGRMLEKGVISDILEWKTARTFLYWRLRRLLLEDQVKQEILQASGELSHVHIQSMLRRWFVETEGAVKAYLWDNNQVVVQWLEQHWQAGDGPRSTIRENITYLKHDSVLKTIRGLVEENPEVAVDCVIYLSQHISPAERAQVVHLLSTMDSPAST
# Procedure, shortened: as §1
# Human sebocytes [3] = test: Cellular levels of malonyl-CoA in human sebocytes; type: cell-based; settings: 0.5 h, 30 min incubation, read-out: Malonyl-CoA in Sebo IC50
# Protocol: Shimadzu LC system was used for sample analysis consisting of system controller (Shimadzu CBM-20A), autosampler (Shimadzu SIL-20A), pump A and B (Shimadzu LC-20AD), column oven (Shimadzu CTO-20A), and analytical column (Phenomenex Gemini 5u C18 11A, 100×2 mm). LC was running at 200 μL/min in the binary gradient mode with mobile phase A (5 mM Ammonium Acetate and 5 mM DMBA in water (1,3-Dimethylbutylamine)) and B (methanol). The samples were analyzed on an AB Sciex QTrap4000 LC-MS/MS triple quadrupole mass spectrometer (Applied Biosystems). Malonyl-CoA and malonyl-13C-CoA were monitored in positive ion mode following MRM transitions at 854.2/347.1 and 855.1/246.1, respectively. The product and internal standard were coeluted to the mass spectrometer in 3 s with 50% H2O, 25% MeCN, 25% acetone, and 5 mM ammonium acetate. Ion chromatograms were integrated using the Analyst 1.5.2 software. Peak area ratios were compared against a standard curve and final cellular concentration of malonyl-CoA or production rate of malonyl-13C-CoA was calculated as pmoles/mg protein per minute.
# Human sebocytes (Celprogen) were grown in growth media (DMEM with 4.5 g/L glucose, 0.584 g/L L-glutamine (Sigma), 100 units/mL of penicillin and 100 μg/mL of streptomycin (Gibco), 10% fetal bovine serum (Gibco)) at 37° C. in a humidified water jacketed incubator (Forma Scientific) supplemented with 5% CO2 till 100% confluency. Cells grown in 152 cm^2 cell culture dish (Corning) were trypsinized with 0.25% trypsin-EDTA (Gibco), centrifuged at 800 rpm for 10 min (Eppendorf) and resuspended in 4 mL growth media. To 1 μL serial diluted compounds in DMSO, 99 μL cells (around 0.5 million cells suspended in growth media) were added and mixed well followed by incubation in cell culture incubator for 30 min. Cells were then centrifuged at 800 rpm for 10 min and 70 μL 10% trichloroacetic acid was added to each well to lyse the cells and precipitate proteins. Cellular levels of malonyl-CoA were quantitated by LC-MS/MS.
# [4] = Plasma protein binding (mouse); type: in vitro ADME; settings: % free, read-out: PPB (h/m) % free, mouse
# Protocol: as §2
# Human sebocytes [5] = test: Lipogenesis of human sebocytes; type: cell-based; settings: 96 hours, nile red, read-out: LG-Sebo IC50
# Protocol: Human sebocytes (Celprogen) were grown in collagen-coated 96-well culture microplate (White/Clear bottom, Coming BioCoat) with growth media till 100% confluency. Culture media was changed to growth media plus 100 μM arachidonic acid (Sigma) and 10 μM rosiglitazone (Tocris) with compounds prepared in DMSO (1:1000 dilution in growth media). Cells were treated with compounds for 96 hours with media containing compounds changed after 48 hours. Upon completion of treatment, cells were washed with 200 μL Phosphate Buffered Saline (PBS) and then fixed by adding 100 μL 4% formaldehyde (Sigma) and incubated at room temperature for 1 hour. Cells were then washed 3 times with PBS. Microplate was stained with 100 μL nile red solution prepared in PBS (2 mg/mL, 1:400 dilution) by incubating at 37° C. for 1 hour and then washed 3 times with PBS. The fluorescence was read at Ex 492 nm and Em 595 nm (TECAN SpectrofluorPlus). Effect of compounds on lipogenesis in sebocytes was calculated by % of DMSO vehicle control.
SMILES,IC50 (human ACC1),fraction unbound [1],half-life [2],clearance [2],m-PK F [2],IC50 (human ACC2),IC50 (Human sebocytes [3]),fraction unbound [4],IC50 (Human sebocytes [5])
"COc1cc(C(=O)N2CCC3(CC2)Cc2ccc(Nc4ccnn4C)cc2C(=O)O3)nc2c(OC)cccc12 [Example 6, 1′-(4,8-dimethoxyquinoline-2-carbonyl)-7-((1-methyl-1H-pyrazol-5-yl)amino)spiro[isochroman-3,4′-piperidin]-1-one]",36.2 nM,0.0036,30 min,15.2 mL/min/kg,F: 53%,31.2 nM,47.4 nM,0.0073,
"COc1cc(C(=O)N2CCC3(CC2)Cc2ccc(C(C)C)cc2C(=O)O3)nc2c(OC)cccc12 [Example 2, 1′-(4,8-dimethoxyquinoline-2-carbonyl)-7-isopropylspiro[isochroman-3,4′-piperidin]-1-one]",,0.0037,25.2 min,46.5 mL/min/kg,F: 4.9%,,,0.0028,25 nM
